{"source": "patent US7632841B2", "about": "“2-N{5-[[4-[2-(methyl-2-pyridinylamino) ethoxy] phenyl]methyl]-2,4-thiazolidinedione} butanedioic acid, methods of preparation and compositions with rosiglitazone maleate” (Teva Pharmaceutical Industries, Ltd., priority 2006, dated 2009)", "assay": "Compatibility study: rosiglitazone maleate mixed with excipients/metformin and water, formation of Compound 1", "type": "physicochemical", "conditions": "rosiglitazone maleate mixed with the named excipient in proportions of 500 mg/4 mg tablets, 0.5 ml water added, 65° C. for 4 days", "method": "Rosiglitazone maleate was mixed with various excipients and with metformin in the same proportions as present in the 500 mg/4 mg (base strength) metformin/rosiglitazone maleate tablets. 0.5 ml of water was added to each mixture, and the samples were kept at 65° C. for 4 days. The amount of Compound 1 was determined in each of the samples using the method in Example 4. The peaks were measured and the area percent (area of Compound 1 peak/area of all rosiglitazone related peaks) of the Compound 1 peak is listed below.\nPlacebo mix A refers to a mixture of excipients as indicated in Example 5a, with the exception of rosiglitazone maleate.\nPlacebo mix B refers to a mixture of excipients as indicated in Example 5b, with the exception of rosiglitazone maleate.", "data": [{"compound": "CN(CCOc1ccc(CC2SC(=O)NC2=O)cc1)c1ccccn1.O=C(O)/C=C\\C(=O)O", "note": "(racemic) [Rosiglitazone Maleate (alone), (±)-5-[[4-[2-(methyl-2-pyridinylamino)ethoxy]phenyl]methyl]-2,4-thiazolidinedione, (Z)-2-butenedioate (1:1)]", "values": [{"measurement": "Area Percent of Compound 1 peak (area of Compound 1 peak/area of all rosiglitazone related peaks)", "result": 0.9, "unit": "Area Percent"}]}]}
